Test results reported in patent US9456606B2, “Pesticidal mixtures” (Syngenta Participations AG, priority 2011, dated 2016).

Test system: Tetranvchus urticae (Two-Spotted Spider Mite)
Assay: Tetranychus urticae bean leaf disc spray test, mobile stages mortality after 8 days, with COLBY expected action
Assay type: in vivo
Details: for C8 observed control %: C8 alone; for DMET observed control %: DMET alone; for SPAT observed control %: SPAT alone
Text: The action to be expected E for a given active ingredient combination obeys the so-called COLBY formula and can be calculated as follows (COLBY, S. R. “Calculating synergistic and antagonistic responses of herbicide combination”. Weeds, Vol. 15, pages 20-22; 1967):
According to COLBY, the expected (additive) action of active ingredients A)+B) using p+q ppm of active ingredient is
If the action actually observed (O) is greater than the expected action (E), then the action of the combination is super-additive, i.e. there is a synergistic effect. In mathematical terms the synergism factor SF corresponds to O/E. In the agricultural practice an SF of ≧1.2 indicates significant improvement over the purely complementary addition of activities (expected activity), while an SF of ≦0.9 in the practical application routine signals a loss of activity compared to the expected activity.
Tetranvchus urticae (Two-Spotted Spider Mite)
Bean leaf discs on agar in 24-well microtiter plates are sprayed with test solutions (DMSO). After drying, the leaf discs are infested with mite populations of mixed ages. 8 days later, discs are checked for mobile stages (I removed “mixed population”) mortality.
Columns 4 and 5 show the control observed from the compounds alone. […] When a compound applied alone gave no control at a particular rate, it is assumed that lower rates of that compound alone also give no control. DMET=deltamethrin, SPAT=spirotetramat, C8=compound 8 in Table C.

CCC(=O)NC1CCc2cc(C3=NOC(c4cc(Cl)cc(Cl)c4)(C(F)(F)F)C3)ccc21 (racemic) [C8]
C8 observed control % (0.094 ppm, Table 1): 0% | C8 observed control % (0.187 ppm, Table 1): 0% | C8 observed control % (0.375 ppm, Table 1): 0% | C8 observed control % (0.375 ppm, Table 2): 0% | C8 observed control % (0.75 ppm, Table 1): 25% | C8 observed control % (0.75 ppm, Table 2): 55% | C8 observed control % (1.5 ppm, Table 1): 65% | C8 observed control % (1.5 ppm, Table 2): 80% | C8 observed control % (3.0 ppm, Table 2): 95% | C8 observed control % (6.0 ppm, Table 2): 95%

CC1(C)[C@H](C(=O)O[C@H](C#N)c2cccc(Oc3ccccc3)c2)[C@@H]1C=C(Br)Br [DMET, deltamethrin]
DMET observed control % (0.39 ppm): 0% | DMET observed control % (0.781 ppm): 0% | DMET observed control % (1.562 ppm): 0% | DMET observed control % (3.125 ppm): 0% | DMET observed control % (6.25 ppm): 75% | DMET observed control % (12.5 ppm): 80% | DMET observed control % (25 ppm): 90% | DMET observed control % (50 ppm): 90%

CCOC(=O)OC1=C(c2cc(C)ccc2C)C(=O)N[C@]12CC[C@@H](OC)CC2 [SPAT, spirotetramat]
SPAT observed control % (1.56 ppm): 0% | SPAT observed control % (3.125 ppm): 0% | SPAT observed control % (3.25 ppm): 0% | SPAT observed control % (6.25 ppm): 25% | SPAT observed control % (12.5 ppm): 65% | SPAT observed control % (25 ppm): 80% | SPAT observed control % (50 ppm): 85% | SPAT observed control % (100 ppm): 85% | SPAT observed control % (.25 ppm): 80%
